Patent publication US20260191818A1 (University of South Carolina, priority 2022, published 2026)

Test system: P62, LC3B, Parkin, BNIP3
Assay: Western blot of rectus femoris, autophagy and mitophagy proteins
Assay type: in vivo, CD2F1 mice
Conditions: C26+5FU+Quer vs C26+5FU
Procedure: Protein isolation and western blotting was completed similar to what has been previously described. See, Sougiannis, A. T., et al., Impact of weight loss and partial weight regain on immune cell and inflammatory markers in adipose tissue in male mice. J Appl Physiol (1985), 2020. 129(4): p. 909-919. The rectus femoris (RF) was teased from the other quadriceps muscles, cut in half (proximal/distal), snap frozen in liquid nitrogen, and stored at −80° C. The distal RF was homogenized in Mueller Buffer (50 mM Hepes, 0.1% Triton-x, 4 mM EGTA, 10 mM EDTA, 15 mM Na4P207, 100 mM β-glycerophosphate, 25 mM NaF, and 5 mM NaVO4, with protease inhibitor cocktail) using a bead homogenizer at 4° C. Samples were centrifuged and the supernatant was collected and diluted with a diluent buffer (50% Glycerol, 50 mM Na4P2O7, 2.5 mM EGTA, and 1 mM β-mercaptoethanol with protease inhibitor cocktail). […] Between 10-50 μg of muscle protein homogenate was separated via SDS-PAGE and transferred to a PVDF membrane. Membranes were stained with Ponceau Red to confirm even loading and transfer efficiency. Membranes were then washed with tris buffered saline with 0.1% Tween (TBST) before blocking for 1 h at room temp with 5% milk TBST. Membranes were then incubated in primary anti-body (Table 1, see FIG. 8) overnight at 4° C. under gentle agitation. Membranes were then washed 3×5 min and incubated with the appropriate (anti-mouse or rabbit) HRP-linked secondary in 5% milk TBST for 1 h at room temperature. After a final 3×5 min wash membranes were incubated in chemiluminescent HRP substrate before visualization with a Syngene G:box. Images were then scanned, and relative protein expression was determined with ImageJ. Investigator was blinded to sample loading scheme and images were cropped after analysis for representation. All samples (full Ns) were run together for each protein. Dotted lines indicate where gels were cropped.

O=c1c(O)c(-c2ccc(O)c(O)c2)oc2cc(O)cc(O)c12 [quercetin, 3,4,5,7-pentahydroxylflavone]
change in LC3b expression (no observed difference, p=0.2): −33.4% | change in P62 expression (no observed difference, p=0.20): −33.4% | change in BNIP3 expression (significant increase, p=0.024): 555%
